Consider three compounds from patent US11161885B2, “Antimicrobial protein” (CONSUMO EM VERDE—BIOTECNOLOGIA DAS PLANTAS, S.A., priority 2010, dated 2021).

Common to all, as to format: cell-based
One assay concerns Listeria monocytogenes. Nature of the assay: Time-kill curves for BLAD and/or EDTA. The following applies: EDTA at 0.1 mg/ml alone. The method, then:
(§1) • MIC—Minimum Inhibitory Concentration: the lowest concentration of an antimicrobial that inhibits the visible growth of a microorganism. • MFC/MBC—Minimum Fungicidal/Bactericidal Concentration (or Minimal Lethal Concentration): the lowest concentration of an antimicrobial agent needed to kill 99.9% of the initial inoculum after 24 h under a standardized set of conditions. • Time-kill curves—Determination of the “killing” of an isolate over time by one or more antimicrobial agents under controlled conditions is known as the time-kill method. It is a broth based method where the rate of killing of a fixed inoculum is determined by sampling control (organism, no drug) and antimicrobial agent-containing tubes or flasks, at certain time intervals, and determining the survivor colony count (cfu/ml) by spreading each sample onto an agar plate.
(§2) Time-kill curves for BLAD and/or EDTA with (A) Listeria monocytogenes, (B) Pseudomonas aeruginosa and (C) Candida albicans: see FIG. 9.

The subject of the next assay is Pseudomonas aeruginosa. Nature of the assay: Time-kill curves for BLAD and/or EDTA. As to conditions: EDTA at 1 mg/ml alone. The procedure: as §1, §2
The test system of assay [1] is Candida albicans. As to the kind of experiment: Time-kill curve and growth curve for BLAD and/or EDTA. As to conditions: EDTA at 0.1 mg/ml alone. The method, then: as §1, §2
For assay [2], the system named is Candida albicans. As to the kind of experiment: Growth curve in PDB pH 7 medium. From the text: Growth curve for BLAD with Candida albicans in PDB pH 7 medium: see FIG. 4.

SMILES strings stand for the structures.

Take `O=C(O)CN(CCN(CC(=O)O)CC(=O)O)CC(=O)O` [EDTA, ethylenediaminetetraacetic acid]: the “activity in time-kill curve” value in the assay on Listeria monocytogenes was “neither BLAD at 10 μg/ml nor EDTA at 0.1 mg/ml inhibits growth”; in the assay on Pseudomonas aeruginosa it was “bacteriostatic”; in the assay on Candida albicans [1], “fungistatic”. In the case of `C[C@@H]1[C@H](O)[C@@H](C)/C=C/C=C/C=C/C=C/C=C/C=C/C=C/[C@H](O[C@@H]2O[C@H](C)[C@@H](O)[C@H](N)[C@@H]2O)C[C@@H]2O[C@](O)(C[C@@H](O)C[C@@H](O)[C@H](O)CC[C@@H](O)C[C@@H](O)CC(=O)O[C@H]1C)C[C@H](O)[C@H]2C(=O)O` [amphotericin B], in the assay with Candida albicans [2] (10 μg/ml), the “activity in growth curve” value is listed as “fungistatic”. For the compound `OC(Cn1cncn1)(Cn1cncn1)c1ccc(F)cc1F` [fluconazole], in the assay on Candida albicans [2] (100 μg/ml), the “activity in growth curve” value is “merely delays growth”.
